# Biological target: T1, FtsY (T. aquaticus) (Thermus aquaticus, UniProt P83749)
# T1 construct: FtsY retaining N-terminal helix N1 (naturally lacks A-domain), NG domains; expressed in E. coli BL21(DE3) from pET21; apo/GMPPNP NCS dimer in crystal
# T1 sequence (P83749 1-304): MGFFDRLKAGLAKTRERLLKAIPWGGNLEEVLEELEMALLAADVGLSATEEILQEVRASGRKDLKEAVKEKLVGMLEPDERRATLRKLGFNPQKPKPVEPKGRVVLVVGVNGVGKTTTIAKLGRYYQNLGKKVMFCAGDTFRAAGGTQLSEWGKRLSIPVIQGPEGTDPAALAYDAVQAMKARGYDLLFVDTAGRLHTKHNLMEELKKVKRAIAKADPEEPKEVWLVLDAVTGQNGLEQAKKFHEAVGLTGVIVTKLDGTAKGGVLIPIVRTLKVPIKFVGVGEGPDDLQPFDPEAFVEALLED
# Experiment: X-ray crystal structure of complex ([…] and […] Å)
# Format: binding
# Details: non-hydrolysable GTP analogue; form I (F1, 2.2 Å) grown with MgCl2, no ordered Mg2+; form II (F2, 2.3 Å) without Mg2+; GTPase active site, one monomer of the dimer
smiles,measurement,value
Nc1nc2c(ncn2[C@@H]2O[C@H](COP(=O)(O)OP(=O)(O)NP(=O)(O)O)[C@@H](O)[C@H]2O)c(=O)[nH]1 [GMPPNP],X-ray crystal structure of complex (2.2 and 2.3 Å),one monomer in apo-FtsY and the other FtsY monomer bound with GMPPNP

# Reference: PMC1904258, “X-ray Structures of the Signal Recognition Particle Receptor Reveal Targeting Cycle Intermediates” (PLoS ONE, 2007)
